Laboratory results as given in paper PMC5218480 (PLoS ONE, 2017).

System: MV-4-11 cells
Test: Gene expression microarray analysis (Affymetrix PrimeView) and GSEA
Type: cell-based, human
Set-up: RFU PODN (11730768_x_at) / Fold change /veh PODN (11730768_x_at) / RFU LINC00158 (11744669_a_at) / Fold change /veh LINC00158 (11744669_a_at) / RFU DUSP10 (11751237_a_at) / Fold change /veh DUSP10 (11751237_a_at) / RFU ID3 (11757404_x_at) / Fold change /veh ID3 (11757404_x_at) / RFU PLEKHG5 (11737974_s_at) / Fold change /veh PLEKHG5 (11737974_s_at) / RFU LRRC4B (11730491_at) / Fold change /veh LRRC4B (11730491_at) / RFU GIMAP4 (11747438_a_at) / Fold change /veh GIMAP4 (11747438_a_at) / RFU KRT8 (11758183_x_at) / Fold change /veh KRT8 (11758183_x_at) / RFU CNN1 (11734310_a_at) / Fold change /veh CNN1 (11734310_a_at) / RFU VPS37D (11726825_at) / Fold change /veh VPS37D (11726825_at) / RFU C10orf10 (11716522_x_at) / Fold change /veh C10orf10 (11716522_x_at) / RFU KIR2DL2 /// KIR2DL4 /// KIR2DL5A /// KIR2DL5B /// KIR2DS1 /// KIR2DS2 /// KIR2DS3 /// KIR2DS4 /// KIR3DL3 /// KIR3DL3 /// KIR3DS1 (11738374_at) / Fold change /veh KIR2DL2 /// KIR2DL4 /// KIR2DL5A /// KIR2DL5B /// KIR2DS1 /// KIR2DS2 /// KIR2DS3 /// KIR2DS4 /// KIR3DL3 /// KIR3DL3 /// KIR3DS1 (11738374_at) / RFU C1QL1 (11718748_at) / Fold change /veh C1QL1 (11718748_at) / RFU TMPRSS4 (11747572_a_at) / Fold change /veh TMPRSS4 (11747572_a_at) / RFU HAMP (11756126_x_at) / Fold change /veh HAMP (11756126_x_at) / RFU RNFT2 (11725882_a_at) / Fold change /veh RNFT2 (11725882_a_at) / RFU NR4A2 (11747474_a_at) / Fold change /veh NR4A2 (11747474_a_at) / RFU ABCC12 (11746883_a_at) / Fold change /veh ABCC12 (11746883_a_at) / RFU TMEM136 (11760407_x_at) / Fold change /veh TMEM136 (11760407_x_at) / RFU CLDN22 /// WWC2 (11732394_at) / Fold change /veh CLDN22 /// WWC2 (11732394_at) / RFU HLA-DPB1 (11760878_x_at) / Fold change /veh HLA-DPB1 (11760878_x_at) / RFU SPINT1 (11716480_a_at) / Fold change /veh SPINT1 (11716480_a_at) / RFU GAP43 (11754022_s_at) / Fold change /veh GAP43 (11754022_s_at) / RFU A4GNT (11735810_at) / Fold change /veh A4GNT (11735810_at) / RFU PRB3 (11715151_x_at) / Fold change /veh PRB3 (11715151_x_at) / RFU TUBB4B (11761932_at) / Fold change /veh TUBB4B (11761932_at) / RFU CAPN14 (11732068_a_at) / Fold change /veh CAPN14 (11732068_a_at) / RFU TMCC2 (11721928_a_at) / Fold change /veh TMCC2 (11721928_a_at) / RFU IRGQ (11745062_a_at) / Fold change /veh IRGQ (11745062_a_at) / RFU FAM174B (11720279_a_at) / Fold change /veh FAM174B (11720279_a_at) / RFU TMPRSS4 (11748680_a_at) / Fold change /veh TMPRSS4 (11748680_a_at) / RFU FAM212B (11763350_a_at) / Fold change /veh FAM212B (11763350_a_at) / RFU PLEKHG5 (11743358_a_at) / Fold change /veh PLEKHG5 (11743358_a_at) / RFU ZSCAN30 (11745921_a_at) / Fold change /veh ZSCAN30 (11745921_a_at) / RFU CMKLR1 (11741424_a_at) / Fold change /veh CMKLR1 (11741424_a_at) / RFU LOC101060620 /// MAPK8IP1 (11723275_at) / Fold change /veh LOC101060620 /// MAPK8IP1 (11723275_at) / RFU SPTSSB (11747773_x_at) / Fold change /veh SPTSSB (11747773_x_at) / RFU PRSS12 (11739890_at) / Fold change /veh PRSS12 (11739890_at) / RFU BIN1 (11741810_x_at) / Fold change /veh BIN1 (11741810_x_at) / RFU WNT11 (11732464_a_at) / Fold change /veh WNT11 (11732464_a_at) / RFU C10orf10 (11716521_a_at) / Fold change /veh C10orf10 (11716521_a_at) / RFU C5orf56 (11738089_at) / Fold change /veh C5orf56 (11738089_at) / RFU CYB561 (11721691_x_at) / Fold change /veh CYB561 (11721691_x_at) / RFU ANKRD19P (11752326_a_at) / Fold change /veh ANKRD19P (11752326_a_at) / RFU OR2T12 /// OR2T33 /// OR2T8 (11738714_s_at) / Fold change /veh OR2T12 /// OR2T33 /// OR2T8 (11738714_s_at) / RFU VCAN (11748164_a_at) / Fold change /veh VCAN (11748164_a_at) / RFU JSRP1 (11732532_at) / Fold change /veh JSRP1 (11732532_at) / RFU KRTAP10-11 (11738290_x_at) / Fold change /veh KRTAP10-11 (11738290_x_at) / RFU MYO3A (11730013_a_at) / Fold change /veh MYO3A (11730013_a_at) / RFU EBF3 (11725865_a_at) / Fold change /veh EBF3 (11725865_a_at) / RFU CAMK2N1 (11719241_x_at) / Fold change /veh CAMK2N1 (11719241_x_at) / RFU C5orf56 (11738088_a_at) / Fold change /veh C5orf56 (11738088_a_at) / RFU OLFML3 (11715873_a_at) / Fold change /veh OLFML3 (11715873_a_at) / RFU LOC100653217 /// NTM (11731650_a_at) / Fold change /veh LOC100653217 /// NTM (11731650_a_at) / RFU MAPK11 (11762145_a_at) / Fold change /veh MAPK11 (11762145_a_at) / RFU FIZ1 (11724087_x_at) / Fold change /veh FIZ1 (11724087_x_at) / RFU OASL (11726364_x_at) / Fold change /veh OASL (11726364_x_at) / RFU SOX15 (11748057_x_at) / Fold change /veh SOX15 (11748057_x_at) / RFU CD79A (11719716_a_at) / Fold change /veh CD79A (11719716_a_at) / RFU HIST1H1D (11736915_at) / Fold change /veh HIST1H1D (11736915_at) / RFU CASKIN2 (11723855_a_at) / Fold change /veh CASKIN2 (11723855_a_at) / RFU LOC730098 (11760151_x_at) / Fold change /veh LOC730098 (11760151_x_at) / RFU OR4N2 (11742367_at) / Fold change /veh OR4N2 (11742367_at) / RFU PRRT2 (11749266_a_at) / Fold change /veh PRRT2 (11749266_a_at) / RFU SNX32 (11753110_a_at) / Fold change /veh SNX32 (11753110_a_at) / RFU CDHR5 (11726645_a_at) / Fold change /veh CDHR5 (11726645_a_at) / RFU RCAN1 (11760418_a_at) / Fold change /veh RCAN1 (11760418_a_at) / RFU FAM167A (11723789_a_at) / Fold change /veh FAM167A (11723789_a_at) / RFU FAM26E (11764081_at) / Fold change /veh FAM26E (11764081_at) / RFU ISYNA1 (11749810_s_at) / Fold change /veh ISYNA1 (11749810_s_at) / RFU ACY1 (11761880_at) / Fold change /veh ACY1 (11761880_at) / RFU 11764098_at / Fold change /veh 11764098_at / RFU SAMD14 (11745864_x_at) / Fold change /veh SAMD14 (11745864_x_at) / RFU NPB (11741838_a_at) / Fold change /veh NPB (11741838_a_at) / RFU TMPRSS6 (11731388_a_at) / Fold change /veh TMPRSS6 (11731388_a_at) / RFU KRTAP10-2 (11738614_at) / Fold change /veh KRTAP10-2 (11738614_at) / RFU ARHGAP8 /// PRR5-ARHGAP8 (11727945_x_at) / Fold change /veh ARHGAP8 /// PRR5-ARHGAP8 (11727945_x_at) / RFU KRTAP5-7 /// NADSYN1 (11734609_at) / Fold change /veh KRTAP5-7 /// NADSYN1 (11734609_at) / RFU RASL12 (11751679_a_at) / Fold change /veh RASL12 (11751679_a_at) / RFU CDKN2B (11736163_a_at) / Fold change /veh CDKN2B (11736163_a_at) / RFU PRF1 (11729649_at) / Fold change /veh PRF1 (11729649_at) / RFU, ZNF638 /// ZNF638-IT1 / Fold change vs veh, ZNF638 /// ZNF638-IT1 / RFU, PANK3 / Fold change vs veh, PANK3 / RFU, SH3YL1 / Fold change vs veh, SH3YL1 / RFU, ZEB2 / Fold change vs veh, ZEB2 / RFU, NRIP1 / Fold change vs veh, NRIP1 / RFU, PTTG1IP / Fold change vs veh, PTTG1IP / RFU, CAPN2 / Fold change vs veh, CAPN2 / RFU, MED14 / Fold change vs veh, MED14 / RFU, SNORA58 / Fold change vs veh, SNORA58 / RFU, C1orf63 / Fold change vs veh, C1orf63 / RFU, LRRFIP1 / Fold change vs veh, LRRFIP1 / RFU, NDUFAF7 / Fold change vs veh, NDUFAF7 / RFU, SLC12A2 / Fold change vs veh, SLC12A2 / RFU, IBTK / Fold change vs veh, IBTK / RFU, ESF1 / Fold change vs veh, ESF1 / Fold change vs veh, TMEM50B / RFU, TAOK1 / Fold change vs veh, TAOK1 / RFU, ACBD3 / Fold change vs veh, ACBD3 / RFU, TMA16 / Fold change vs veh, TMA16 / RFU, RWDD3 / Fold change vs veh, RWDD3 / RFU, BCAT1 / Fold change vs veh, BCAT1 / RFU, EDEM3 / Fold change vs veh, EDEM3 / RFU, TMEM33 / Fold change vs veh, TMEM33 / RFU, WDR75 / Fold change vs veh, WDR75 / RFU, AHCTF1 / Fold change vs veh, AHCTF1 / RFU, TFRC / Fold change vs veh, TFRC / RFU, ZDHHC17 / Fold change vs veh, ZDHHC17 / RFU, NOM1 / Fold change vs veh, NOM1 / RFU, ARL8B / Fold change vs veh, ARL8B / RFU, ZBTB11 / Fold change vs veh, ZBTB11 / RFU, TAMM41 / Fold change vs veh, TAMM41 / RFU, KIAA1704 /// LOC100996395 / Fold change vs veh, KIAA1704 /// LOC100996395 / RFU, ING1 / Fold change vs veh, ING1 / RFU, TRMT61B / Fold change vs veh, TRMT61B / RFU, FUBP3 / Fold change vs veh, FUBP3 / RFU, TP53 / Fold change vs veh, TP53 / RFU, TNKS2 / Fold change vs veh, TNKS2 / RFU, ZFP14 / Fold change vs veh, ZFP14 / RFU, ACTR2 / Fold change vs veh, ACTR2 / RFU, PPP3R1 / Fold change vs veh, PPP3R1 / RFU, PIK3R1 / Fold change vs veh, PIK3R1 / RFU, HNRNPA1 / Fold change vs veh, HNRNPA1 / RFU, RNF170 / Fold change vs veh, RNF170 / RFU, ZNF28 / Fold change vs veh, ZNF28 / RFU, RNGTT / Fold change vs veh, RNGTT / RFU, OGT / Fold change vs veh, OGT / RFU, BRD1 / Fold change vs veh, BRD1 / RFU, MARS / Fold change vs veh, MARS / RFU, ZNF655 / Fold change vs veh, ZNF655 / RFU, FAHD1 / Fold change vs veh, FAHD1 / RFU, BDP1 / Fold change vs veh, BDP1 / RFU, LRRCC1 / Fold change vs veh, LRRCC1 / RFU, ARID1A / Fold change vs veh, ARID1A / RFU, ZNF146 / Fold change vs veh, ZNF146 / RFU, ZNF330 / Fold change vs veh, ZNF330 / RFU, GPN3 / Fold change vs veh, GPN3 / RFU, C9orf123 / Fold change vs veh, C9orf123 / RFU, N4BP2L2 / Fold change vs veh, N4BP2L2 / RFU, ARFIP1 / Fold change vs veh, ARFIP1 / RFU, FAM179B / Fold change vs veh, FAM179B / RFU, BCL10 / Fold change vs veh, BCL10 / RFU, UHRF1BP1L / Fold change vs veh, UHRF1BP1L / RFU, BET1 / Fold change vs veh, BET1 / RFU, CNOT2 / Fold change vs veh, CNOT2 / RFU, ZNF268 / Fold change vs veh, ZNF268 / Fold change vs veh, ZNF507 / RFU, DGCR2 / Fold change vs veh, DGCR2 / RFU, WDSUB1 / Fold change vs veh, WDSUB1 / Fold change vs veh, HSP90B1 /// MIR3652 / RFU, ADSS / Fold change vs veh, ADSS / RFU, GK / Fold change vs veh, GK / RFU, ZNF148 / Fold change vs veh, ZNF148 / RFU, TAF9 / Fold change vs veh, TAF9 / RFU, SLC1A5 / Fold change vs veh, SLC1A5 / RFU, SLMO2 / Fold change vs veh, SLMO2 / RFU, ABCC4 / Fold change vs veh, ABCC4 / RFU, LOC101060439 /// RAP1B / Fold change vs veh, LOC101060439 /// RAP1B / RFU, RFX7 / Fold change vs veh, RFX7 / RFU, GTPBP10 / Fold change vs veh, GTPBP10 / RFU, CNEP1R1 / Fold change vs veh, CNEP1R1 / RFU, BIVM-ERCC5 /// ERCC5 / Fold change vs veh, BIVM-ERCC5 /// ERCC5 / RFU, ILF3 / Fold change vs veh, ILF3 / RFU 11762660_at / Fold change /veh 11762660_at / RFU VCAN (11757783_s_at) / Fold change /veh VCAN (11757783_s_at) / RFU DDX43 (11728927_at) / Fold change /veh DDX43 (11728927_at) / RFU KRT8 (11758188_x_at) / Fold change /veh KRT8 (11758188_x_at) / RFU NKD1 (11759106_at) / Fold change /veh NKD1 (11759106_at) / RFU SRD5A1 (11742802_a_at) / Fold change /veh SRD5A1 (11742802_a_at) / RFU TPSAB1 /// TPSB2 (11721975_s_at) / Fold change /veh TPSAB1 /// TPSB2 (11721975_s_at) / RFU GSTM3 (11746129_a_at) / Fold change /veh GSTM3 (11746129_a_at) / RFU IL23R (11737362_x_at) / Fold change /veh IL23R (11737362_x_at) / RFU TMEM51 (11727254_a_at) / Fold change /veh TMEM51 (11727254_a_at) / RFU PIWIL2 (11732686_x_at) / Fold change /veh PIWIL2 (11732686_x_at) / RFU ORM1 (11744905_x_at) / Fold change /veh ORM1 (11744905_x_at) / RFU CCDC152 (11743942_at) / Fold change /veh CCDC152 (11743942_at) / RFU ECM1 (11717891_a_at) / Fold change /veh ECM1 (11717891_a_at) / RFU IL23R (11748794_a_at) / Fold change /veh IL23R (11748794_a_at) / RFU TNFAIP8L3 (11732012_x_at) / Fold change /veh TNFAIP8L3 (11732012_x_at) / RFU MBOAT4 (11741988_at) / Fold change /veh MBOAT4 (11741988_at) / RFU 11764193_at / Fold change /veh 11764193_at / RFU TMEM53 (11763286_at) / Fold change /veh TMEM53 (11763286_at) / RFU MAGEB2 (11727129_at) / Fold change /veh MAGEB2 (11727129_at) / RFU TMEM200A (11744735_a_at) / Fold change /veh TMEM200A (11744735_a_at) / RFU CCDC152 (11751479_a_at) / Fold change /veh CCDC152 (11751479_a_at) / RFU FAM211A (11726209_a_at) / Fold change /veh FAM211A (11726209_a_at) / RFU RGS16 (11746705_a_at) / Fold change /veh RGS16 (11746705_a_at) / RFU VCAN (11755009_s_at) / Fold change /veh VCAN (11755009_s_at) / RFU RHOB (11743442_s_at) / Fold change /veh RHOB (11743442_s_at) / RFU RGS16 (11720943_a_at) / Fold change /veh RGS16 (11720943_a_at) / RFU RGS16 (11720944_at) / Fold change /veh RGS16 (11720944_at) / RFU, VPS4B / Fold change vs veh, VPS4B / RFU, CREB1 / Fold change vs veh, CREB1 / RFU, DNAJC13 / Fold change vs veh, DNAJC13 / RFU, GNAQ / Fold change vs veh, GNAQ / RFU, CDK5R1 / Fold change vs veh, CDK5R1 / RFU, ZRANB3 / Fold change vs veh, ZRANB3 / RFU, CUL4A / Fold change vs veh, CUL4A / RFU, CCNY / Fold change vs veh, CCNY / RFU, UFL1 / Fold change vs veh, UFL1 / RFU, COG3 / Fold change vs veh, COG3 / RFU, DIAPH2 / Fold change vs veh, DIAPH2 / RFU, SKA2 / Fold change vs veh, SKA2 / RFU, AFF3 / Fold change vs veh, AFF3 / RFU, LMF1 / Fold change vs veh, LMF1 / RFU, IPO11 / Fold change vs veh, IPO11 / RFU, DFFB / Fold change vs veh, DFFB / RFU, FOXP1 / Fold change vs veh, FOXP1 / RFU, CARD8 / Fold change vs veh, CARD8 / RFU, STRN3 / Fold change vs veh, STRN3 / RFU, ADK / Fold change vs veh, ADK / RFU, RASSF2 / Fold change vs veh, RASSF2 / RFU, WIPF1 / Fold change vs veh, WIPF1 / RFU, LARP1B / Fold change vs veh, LARP1B / RFU, RASA1 / Fold change vs veh, RASA1 / RFU, RB1 / Fold change vs veh, RB1 / RFU, PPFIA1 / Fold change vs veh, PPFIA1 / RFU, MAT2A / Fold change vs veh, MAT2A / RFU, CCT5 / Fold change vs veh, CCT5 / RFU, WDR92 / Fold change vs veh, WDR92 / RFU, CUX1 / Fold change vs veh, CUX1 / RFU, TTC7A / Fold change vs veh, TTC7A / RFU, TMEM135 / Fold change vs veh, TMEM135 / RFU, DEPTOR / Fold change vs veh, DEPTOR / RFU, CPM / Fold change vs veh, CPM / RFU, DNAJB6 / Fold change vs veh, DNAJB6 / RFU, CACNA2D3 / Fold change vs veh, CACNA2D3 / RFU, DTX4 / Fold change vs veh, DTX4 / RFU, TFCP2 / Fold change vs veh, TFCP2 / RFU, GMCL1 /// GMCL1P1 / Fold change vs veh, GMCL1 /// GMCL1P1 / RFU, AEBP2 / Fold change vs veh, AEBP2 / RFU, SNHG1 /// SNORD22 /// SNORD25 /// SNORD26 /// SNORD27 /// SNORD28 /// SNORD29 /// SNORD31 / Fold change vs veh, SNHG1 /// SNORD22 /// SNORD25 /// SNORD26 /// SNORD27 /// SNORD28 /// SNORD29 /// SNORD31 / Fold change (Aza/veh), C12orf56 (ProbeSet 11735607_a_at) / Fold change (ACY-1035/veh), C12orf56 (ProbeSet 11735607_a_at) / Fold change (Aza/veh), FGFR1OP (ProbeSet 11751329_s_at) / Fold change (ACY-1035/veh), FGFR1OP (ProbeSet 11751329_s_at) / Fold change (Aza/veh), VPS36 (ProbeSet 11739960_a_at) / Fold change (ACY-1035/veh), VPS36 (ProbeSet 11739960_a_at) / RFU SYPL1 (11715823_x_at) / Fold change /veh SYPL1 (11715823_x_at) / RFU IGFBP7 (11715501_s_at) / Fold change /veh IGFBP7 (11715501_s_at) / RFU REEP3 (11722064_at) / Fold change /veh REEP3 (11722064_at) / RFU IGLL1 (11728026_x_at) / Fold change /veh IGLL1 (11728026_x_at): dose or concentration left out as unconfirmed
Details: ProbeSet 11730252_s_at; LIST B

Nc1ccc(-c2cccs2)cc1NC(=O)c1ccc2c(c1)cc(C1CC1)n2CCN1CCOCC1 [ACY-1035]
Fold change vs veh, AHCTF1: 0.96
